Paper PMC8692993, “PPARα and PPARγ activation is associated with pleural mesothelioma invasion but therapeutic inhibition is ineffective” (iScience, 2021)
Like-named read-outs stand apart in the source and are kept apart here.

What was measured:
PPARα [1] = biological target: T1, PPARα (Homo sapiens, UniProt Q07869); design: expressed in transfected cells; host or cells: HG5LN (HeLa-derived, GAL4RE-luciferase); method as in Xu et al., 2002; details: inhibition of agonism by 10 nM GW409544, ref Xu et al., 2002, read-out: Functionality, Lit. IC50; cited from earlier work
T1 sequence (Q07869 239-466 limits assumed): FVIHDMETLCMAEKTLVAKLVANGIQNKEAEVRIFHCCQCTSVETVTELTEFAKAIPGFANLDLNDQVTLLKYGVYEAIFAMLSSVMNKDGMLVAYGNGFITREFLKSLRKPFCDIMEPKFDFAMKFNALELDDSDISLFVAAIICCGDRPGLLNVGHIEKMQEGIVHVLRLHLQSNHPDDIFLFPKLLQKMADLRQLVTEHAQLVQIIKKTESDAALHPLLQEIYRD

[2] = tested on: angiopoietin-like 4 (Angptl4); assay: Angptl4 immunohistochemistry of treated tumors; type: in vivo, BALB/c mice; details: GW6471- versus vehicle-treated tumors
Protocol: Tissues were fixed with 4% paraformaldehyde for 48–72 h and embedded in paraffin. 5 μm sections were cut by microtome (Thermo Fisher Scientific) and placed on Slide SuperFrost Plus White 1 mm (Thermo Fisher Scientific). Slides were deparaffinised as previously explained for hematoxylin and eosin staining. Antigen retrieval was performed with 10 mM citrate, pH6, at high pressure in a pressure cooker for 15 min and 5 min slow release. Sections were rinsed twice with TBST buffer (Tris-Buffer Saline with Tween, 20 mM Tris, 500 mM NaCl, and 0.05% Tween 20) for 5 min under agitation. Quench tissue peroxidase H2O2 was performed for 10 min at room temperature with 3% H2O2 in distilled H2O. The Vectastain® ABC kit, peroxidase (Rabbit IgG) (Vector Laboratories) was used for the following steps. Non-specific binding was performed with 1.5% Normal goat serum in PBS for 20 min at room temperature. Primary antibody Angptl4 (1:50) (409800, Invitrogen), was diluted in PBS/1.5% goat serum and incubated 1 h at room temperature. The secondary biotinylated anti-Rabbit IgG (1:200) (Vector Laboratories), was diluted in PBS and incubated for 30 min at room temperature. Vectastain ABC reagent (Vector Laboratories) was used as per manufacturer's instructions, mixing Reagent A with Reagent B (1:1) and incubating at room temperature 30 min prior use. […]

PPARα [3] = biological target: T1, PPARα; assay: LanthaScreen TR-FRET binding assay, PPARα; details: 2 h incubation, mean of 3 replicates ± SEM
Protocol: The LanthaScreen™ TR-FRET binding assay was performed following the manufacturer's guidelines (PV4894, Invitrogen) as follows, 20 mM stock solution of the ligand or control in DMSO were serially diluted using 100% DMSO to produce a range of concentrations from 100 μM to 1 pM. The test compound solutions were mixed with the reaction buffer in a 1 (ligand) in 10 (reaction buffer) dilution for a final 2X ligand concentration. This was mixed with the reaction components (glutathione S-transferase (GST)-PPPARγLBD (0.5 nM)/, terbium (Tb)-labelled anti-GST antibody (5 nM) and Fluormone pan-PPAR green (5 nM for PPARγ; 20 nM for PPARα) at room temperature in a ratio of 8 μLl 2X ligand solution: 4 μLl of 4XFluormone: and 4 μLl 4X GST-PPPARγLBD/terbium (Tb)-labelled anti-GST antibody to produce a final reaction mixture volume of 16 μL. The concentration of DMSO in the final reaction mixture was 5%. The reaction mixture was kept at room temperature for 2 h prior to recording the TR-FRET emission spectra using a CLARIOstar Plus microplate reader (BMG Labtech). […] Results are expressed as the ratio of fluorescence intensity at 520 nm (Fluormone emission) and 490 nm (Tb emission). […] For each compound three serial dilutions were prepared and measured separately. The IC50 and SEM values were determined using a sigmoidal dose-response equation with varying slope using GraphPad Prism.

In the case of `CCC(=O)NC[C@H](Cc1ccc(OCCc2nc(-c3ccccc3)oc2C)cc1)N/C(C)=C\C(=O)c1ccc(C(F)(F)F)cc1` [GW6471], the IC50 (PPARα [1]) is given as 240 nM, the “Angptl4 staining in tumors” value [2] is given as “decreased staining of Angptl4” and the IC50 (PPARα [3]) is given as 95.3 ± 42 nM.
